In patent US11427615B2, “Peptide compound and application thereof, and composition containing peptide compound” (XDCEXPLORER (SHANGHAI) CO., LTD., priority 2017, dated 2022):
Non-standard residues stand in square brackets, D forms with d. Residues, ends and D or L forms follow the SMILES beside them. *: point of attachment. X10 = CNC(=N)NCCC[C@H](NC(=O)[C@H](CC(C)C)NC(=O)NCN*)C(=O)N[C@@H](Cc1c[nH]c2ccccc12)C(N)=O; dPhe(2,4-Cl2) = N[C@H](Cc1ccc(Cl)cc1Cl)C(=O)O; PEG8 = NCCOCCOCCOCCOCCOCCOCCOCCOCCC(=O)O; Dip = N[C@H](C(=O)O)C(c1ccccc1)c1ccccc1; Ala(2-furyl) = N[C@@H](Cc1ccco1)C(=O)O; Pro(4,4-F2) = O=C(O)[C@@H]1CC(F)(F)CN1; dAla(2-furyl) = N[C@H](Cc1ccco1)C(=O)O; dPhe(4-F) = N[C@H](Cc1ccc(F)cc1)C(=O)O; Arg(Me) = CNC(=N)NCCC[C@H](N)C(=O)O; Ala(cPr) = N[C@@H](CC1CC1)C(=O)O; Hyp = O=C(O)[C@@H]1C[C@@H](O)CN1; 2Pal = N[C@@H](Cc1ccccn1)C(=O)O; 3Pal = N[C@@H](Cc1cccnc1)C(=O)O; NMeL = CN[C@@H](CC(C)C)C(=O)O; αMeL = CC(C)C[C@](C)(N)C(=O)O; Cba = N[C@@H](CC1CCC1)C(=O)O; Pip = O=C(O)[C@@H]1CCCCN1; Ac6c = NC1(C(=O)O)CCCCC1; Aze = O=C(O)[C@@H]1CCN1; azaGly = NNC(=O)O; βAla = NCCC(=O)O

These compounds were tested against T1, human kiss1 receptor (GPR54) (Homo sapiens, UniProt Q969F8) (assay: Kiss1 receptor (GPR54) binding activity of agonists, FRET detection in NFAT-bla CHO-K1 cells). Conditions: GPR54; measured according to the method of effect Embodiment 1; preliminary data; read-out: Preliminary measurement data (GPR54) EC50.
T1 construct: host or cells: NFAT-bla CHO-K1 cells (Chinese hamster ovary), purchased recombinant cell line
Type: cell-based
Method: Effect Embodiment 1 Determination of Kiss1 Receptor (GPR54) Binding Activity of Kiss1 Receptor (GPR54) Agonist
The binding activity test of each compound from the above the embodiments with kiss1 receptor (GPR54) was performed by fluorescence energy resonance transfer (FRET) detection technology to detect EC50 values of polypeptides and peptide analogs. The cells used in this experiment were NFAT-bla CHO-K1 cells (k1720, invitrogen, thermosher) that express human kiss1 receptor (GPR54). The specific operations were as follows:
Day 1: Seeding Cells in Plate
1. Microscope (CKX41, OLYMPUS), object lens×4 times, ocular lens×10 times. The cells were ensured in a good condition.
2. Digesting the cells, adding 3 ml of 0.05% pancreatin into a culture dish; cells were placed in a 37° C., 5% CO2 incubator for 2 minutes (Thermo Fisher). After the cells became round under the microscope, 7 ml of culture medium was added. The formula of culture medium was as follows: DMEM 90%, dialzedfbS10, NEAA 0.1 mM, HEPES 25 mM, Penicillin 100 U/ml, Streptomycin 100 μm/ml, pH7.3. After blowing and stirring, it was transferred to 15 mL centrifuge tube (430790, Corning). Centrifuge at 1000 rpm for 5 min (5810R, Eppendorf) and the supernatant was discard.
3. Adding 7 mL of culture medium (DMEM+0.1% BSA), it was pipetting into single cell suspension, after counting with Bio-RAD counter, the cell density was adjusted to 312,500 cells/ml.
4. Cells were inoculated into 384 well plates at 32 μL per well, and the cell number was controlled at 10000 cells/well. 32 μl of culture medium was added into the blank control.
Day 2: Dosing and Data Analysis
1) The compound to be tested was prepared into 50 mM working solution with DMSO.
2) 40 μl of the working solution of the compound to be tested was added into column 2 of row A-H of U-shaped 96-well plate (3797, comings), and 60 μl of DMSO was added into column 3-11. 20 μl of compound solution was sucked from the second column to the third column with a multichannel pipette blowing and stirring evenly; 20 μl of compound solution was absorbed from the third column with a multichannel pipette, then added into the fourth column, blowed and stirred to mix well; the compound was serially diluted 4-fold to a total of 10 concentrations. Column 1 and column 12 of 96-well plates were supplemented with 40 μl DMSO.
2. Intermediate Plate Configuration
1) AU-shaped 96-well plate was used, 199 μL of culture medium (DMEM+0.1% BSA) was added to each well, 1 μL of diluted compound (or DMSO) was sucked from 1000× compound plate and added into the 96-well plate at the corresponding position, blowed and stirred to mix well.
2) Homemade positive compounds and compounds to be tested were added. The cell culture plate was took out from the incubator and cells state was observed under microscope. Diluted compound in the intermediate plate or DMSO was added into the cell, 8 μl per well.
3) Cells were cultured in 37° C. and 5% CO2 for 4 hours.
3. The Substrate was Added to Detect the Binding of the Drug to the Receptor
1) 1 μmol/L CCF-4AM solution and buffer solution B, C, D were equilibrated to room temperature. LiveBLAZER™-FRET B/G Loading Kit (K1095, thermo Fisher) containing CCF-4AM and solution B, solution C, solution D were also available from Invitrogen (K1157, thermo Fisher).
2) 6× loading solution was prepared: 6 μl of CCF-4AM dissolved solution A, 60 μl of solution b, 904 μl of solution c, and 30 μl of solution D were pipetted into EP tube, blowed and stirred to mix well.
3) 8 μl of the above-mentioned liquid was sucked with a multichannel pipette, added into a 96-well plate, and incubated for 2 hours at room temperature.
4) The PerkinElmer detector was used to detect the luminous signals of each hole. FI mode, λex=409 nm, λem1=460 nm, λem2=530 nm.
4. Data Processing Using Graphpad Prism 5 (GraphPad Software. Inc)
Effective rate %=(Signal−Min)/(Max−Min)×100%.

T1 sequence (Q969F8 whole entry): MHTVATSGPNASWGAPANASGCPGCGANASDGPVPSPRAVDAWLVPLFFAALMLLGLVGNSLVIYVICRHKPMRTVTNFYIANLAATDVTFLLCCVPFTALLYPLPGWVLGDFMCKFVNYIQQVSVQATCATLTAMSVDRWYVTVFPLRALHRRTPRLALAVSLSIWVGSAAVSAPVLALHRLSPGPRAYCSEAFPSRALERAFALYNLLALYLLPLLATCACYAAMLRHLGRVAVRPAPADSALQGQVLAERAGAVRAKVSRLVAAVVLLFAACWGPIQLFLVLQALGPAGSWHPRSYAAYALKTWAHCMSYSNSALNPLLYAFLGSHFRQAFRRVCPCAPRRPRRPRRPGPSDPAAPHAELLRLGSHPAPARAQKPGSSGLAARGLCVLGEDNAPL

Structure (SMILES)	EC50 [nM]
CNC(=N)NCCC[C@H](NC(=O)[C@H](CC(C)C)NC(=O)NNC(=O)[C@H](Cc1ccccc1)NC(=O)[C@@H](NC(=O)[C@H](CC(N)=O)NC(=O)[C@@H]1C[C@@H](O)CN1C(=O)[C@@H](Cc1ccc(O)cc1)NC(C)=O)[C@@H](C)O)C(=O)N[C@H](Cc1ccco1)C(N)=O [YA-169, Ac-(D-Tyr)-Hyp-Asn-Thr-Phe-azaGly-Leu-Arg(Me)-[3-(2-furyl)-D-Ala]-NH2] (Ac-[dY][Hyp]NTF[azaGly]L[Arg(Me)][dAla(2-furyl)]-NH2)	6.53
CNC(=N)NCCC[C@H](NC(=O)[C@H](CC(C)C)NC(=O)[C@@H]1CCN1C(=O)[C@H](Cc1ccccc1)NC(=O)[C@@H](NC(=O)[C@H](CC(N)=O)NC(=O)[C@@H]1CC(F)(F)CN1C(=O)[C@@H](Cc1ccc(F)cc1)NC(C)=O)[C@@H](C)O)C(=O)N[C@@H](Cc1c[nH]c2ccccc12)C(N)=O [YA-213, Ac-[D-Phe(4-F)]-Pro(diF)-Asn-Thr-Phe-Aze-Leu-Arg(Me)-Trp-NH2] (Ac-[dPhe(4-F)][Pro(4,4-F2)]NTF[Aze]L[Arg(Me)]W-NH2)	0.4
CNC(=N)NCCC[C@H](NC(=O)[C@H](CC(C)C)NC(=O)[C@@H](Cc1ccco1)NC(=O)[C@H](Cc1ccccc1)NC(=O)[C@@H](NC(=O)[C@H](CC(N)=O)NC(=O)[C@@H]1C[C@@H](O)CN1C(=O)[C@@H](Cc1ccc(O)cc1)NC(C)=O)[C@@H](C)O)C(=O)N[C@@H](Cc1c[nH]c2ccccc12)C(N)=O [YA-168, Ac-D-Tyr-Hyp-Asn-Thr-Phe-(D-2Fua)-Leu-Arg(Me)-Trp-NH2] (Ac-[dY][Hyp]NTF[dAla(2-furyl)]L[Arg(Me)]W-NH2)	0.531
CNC(=N)NCCC[C@H](NC(=O)[C@H](CC(C)C)NC(=O)NNC(=O)[C@H](Cc1ccccc1)NC(=O)[C@@H](NC(=O)[C@H](CC(N)=O)NC(=O)[C@](C)(CC(C)C)NC(=O)[C@@H](Cc1ccc(O)cc1)NC(C)=O)[C@@H](C)O)C(=O)N[C@@H](Cc1c[nH]c2ccccc12)C(N)=O [YA-379, Ac-(D-Tyr)-AlphaMeLeu-Asn-Thr-Phe-azaGly-Leu-Arg(Me)-Trp-NH2] (Ac-[dY][αMeL]NTF[azaGly]L[Arg(Me)]W-NH2)	0.015
CNC(=N)NCCC[C@H](NC(=O)[C@H](CC(C)C)NC(=O)C1(NC(=O)[C@H](Cc2ccccc2)NC(=O)[C@@H](NC(=O)[C@H](CC(N)=O)NC(=O)[C@@H]2CCCCN2C(=O)[C@@H](Cc2ccc(F)cc2)NC(C)=O)[C@@H](C)O)CCCCC1)C(=O)N[C@@H](Cc1c[nH]c2ccccc12)C(N)=O [YA-210, Ac-[D-Phe(4-F)]-(S-Pip)-Asn-Thr-Phe-A6c-Leu-Arg(Me)-Trp-NH2] (Ac-[dPhe(4-F)][Pip]NTF[Ac6c]L[Arg(Me)]W-NH2)	1.47
CNC(=N)NCCC[C@H](NC(=O)[C@H](CC(C)C)NC(=O)NNC(=O)[C@H](Cc1ccccc1)NC(=O)[C@@H](NC(=O)[C@H](CC(N)=O)NC(=O)[C@@H]1C[C@@H](O)CN1C(=O)[C@@H](Cc1ccc(O)cc1)NC(=O)CCOCCOCCOCCOCCOCCOCCOCCOCCNC(C)=O)[C@@H](C)O)C(=O)N[C@@H](Cc1c[nH]c2ccccc12)C(N)=O [YA-151, Ac-PEG8-(D-Tyr)-Hyp-Asn-Thr-Phe-azaGly-Leu-Arg (Me)-Trp-NH2] (Ac-[PEG8][dY][Hyp]NTF[azaGly]L[Arg(Me)]W-NH2)	0.045
CNC(=N)NCCC[C@H](NC(=O)[C@H](CC(C)C)N(C)C(=O)CCNC(=O)[C@H](Cc1ccccc1)NC(=O)[C@@H](NC(=O)[C@H](CC(N)=O)NC(=O)[C@@H]1CCCCN1C(=O)[C@@H](Cc1ccc(Cl)cc1Cl)NC(C)=O)[C@@H](C)O)C(=O)N[C@@H](Cc1c[nH]c2ccccc12)C(N)=O [YA-185, Ac-[D-Phe(2,4-DiCl)]-(S-Pip)-Asn-Thr-Phe-BetaAla-NMeLeu-Arg(Me)-Trp-NH2] (Ac-[dPhe(2,4-Cl2)][Pip]NTF[βAla][NMeL][Arg(Me)]W-NH2)	3.63
CC(=O)N[C@@H](Cc1ccc(O)cc1)C(=O)N[C@@H](CC(N)=O)C(=O)N[C@@H](Cc1c[nH]c2ccccc12)C(=O)N[C@@H](CC(N)=O)C(=O)N[C@@H](CO)C(=O)N[C@@H](Cc1ccccc1)C(=O)NCC(=O)N[C@@H](CC(C)C)C(=O)N[C@@H](CCCNC(=N)N)C(=O)N[C@@H](Cc1ccccc1)C(N)=O [YA-2, Ac-Tyr-Asn-Trp-Asn-Ser-Phe-Gly-Leu-Arg-Phe-NH2]	10
CNC(=N)NCCC[C@H](NC(=O)[C@H](CC(C)C)NC(=O)NNC(=O)[C@H](Cc1ccccc1)NC(=O)[C@@H](NC(=O)[C@H](CC(N)=O)NC(=O)[C@@H]1C[C@@H](O)CN1C(=O)[C@@H](NC(C)=O)C(c1ccccc1)c1ccccc1)[C@@H](C)O)C(=O)N[C@@H](Cc1c[nH]c2ccccc12)C(N)=O [YA-132, Ac-Ala(dip)-Hyp-Asn-Thr-Phe-azaGly-Leu-Arg(Me)-Trp-NH2] (Ac-[Dip][Hyp]NTF[azaGly]L[Arg(Me)]W-NH2)	0.19
CNC(=N)NCCC[C@H](NC(=O)[C@H](CC(C)C)NC(=O)NNC(=O)[C@H](Cc1ccccc1)NC(=O)[C@@H](NC(=O)[C@H](CC(N)=O)NC(=O)[C@H](CC1CCC1)NC(=O)[C@@H](Cc1ccc(O)cc1)NC(C)=O)[C@@H](C)O)C(=O)N[C@@H](Cc1c[nH]c2ccccc12)C(N)=O [YA-380, Ac-(D-Tyr)-Cba-Asn-Thr-Phe-azaGly-Leu-Arg(Me)-Trp-NH2] (Ac-[dY][Cba]NTF[azaGly]L[Arg(Me)]W-NH2)	0.191
CNC(=N)NCCC[C@H](NC(=O)[C@H](CC(C)C)NC(=O)NNC(=O)[C@H](Cc1ccccc1)NC(=O)[C@H](Cc1ccco1)NC(=O)[C@H](CC(N)=O)NC(=O)[C@@H]1C[C@@H](O)CN1C(=O)[C@@H](Cc1ccc(O)cc1)NC(C)=O)C(=O)N[C@@H](Cc1c[nH]c2ccccc12)C(N)=O [YA-143, Ac-D-Tyr-Hyp-Asn-2Fua-Phe-azaGly-Leu-Arg(Me)-Trp-NH2] (Ac-[dY][Hyp]N[Ala(2-furyl)]F[azaGly]L[Arg(Me)]W-NH2)	0.023
CNC(=N)NCCC[C@H](NC(=O)[C@H](CC(C)C)NC(=O)NNC(=O)[C@H](Cc1ccccc1)NC(=O)[C@@H](NC(=O)[C@H](CC(N)=O)NC(=O)[C@@H](Cc1ccco1)NC(=O)[C@@H](Cc1ccc(O)cc1)NC(C)=O)[C@@H](C)O)C(=O)N[C@@H](Cc1c[nH]c2ccccc12)C(N)=O [YA-165, Ac-D-Tyr-(D-2Fua)-Asn-Thr-Phe-azaGly-Leu-Arg(Me)-Trp-NH2] (Ac-[dY][dAla(2-furyl)]NTF[azaGly]L[Arg(Me)]W-NH2)	0.025
CNC(=N)NCCC[C@H](NC(=O)[C@H](CC(C)C)NC(=O)NNC(=O)[C@H](Cc1ccccc1)NC(=O)[C@@H](NC(=O)[C@H](CC(N)=O)NC(=O)[C@H](CC1CC1)NC(=O)[C@@H](Cc1ccc(O)cc1)NC(C)=O)[C@@H](C)O)C(=O)N[C@@H](Cc1c[nH]c2ccccc12)C(N)=O [YA-383, Ac-(D-Tyr)-Cpa-Asn-Thr-Phe-azaGly-Leu-Arg(Me)-Trp-NH2] (Ac-[dY][Ala(cPr)]NTF[azaGly]L[Arg(Me)]W-NH2)	0.074

Further lines, results first:

EC50 [nM]	Structure (SMILES)
0.57	CNC(=N)NCCC[C@H](NC(=O)[C@H](CC(C)C)NC(=O)C1(NC(=O)[C@H](Cc2ccccc2)NC(=O)[C@@H](NC(=O)[C@H](CC(N)=O)NC(=O)[C@@H]2C[C@@H](O)CN2C(=O)[C@@H](Cc2ccco2)NC(C)=O)[C@@H](C)O)CCCCC1)C(=O)N[C@@H](Cc1c[nH]c2ccccc12)C(N)=O [YA-197, Ac-(D-2Fua)-Hyp-Asn-Thr-Phe-A6c-Leu-Arg(Me)-Trp-NH2] (Ac-[dAla(2-furyl)][Hyp]NTF[Ac6c]L[Arg(Me)]W-NH2)
0.18	CNC(=N)NCCC[C@H](NC(=O)[C@H](CC(C)C)NC(=O)NNC(=O)[C@H](Cc1ccccc1)NC(=O)[C@@H](NC(=O)[C@H](CC(N)=O)NC(=O)[C@@H]1C[C@@H](O)CN1C(=O)[C@H](Cc1ccccn1)NC(C)=O)[C@@H](C)O)C(=O)N[C@@H](Cc1c[nH]c2ccccc12)C(N)=O [YA-68, Ac-2Pal-Hyp-Asn-Thr-Phe-azaGly-Leu-Arg(Me)-Trp-NH2] (Ac-[2Pal][Hyp]NTF[azaGly]L[Arg(Me)]W-NH2)
2.6	CNC(=N)NCCC[C@H](NC(=O)[C@H](CC(C)C)NC(=O)NNC(=O)C1(NC(=O)[C@@H](NC(=O)[C@H](CC(N)=O)NC(=O)[C@@H]2C[C@@H](O)CN2C(=O)[C@@H](Cc2ccc(O)cc2)NC(C)=O)[C@@H](C)O)CCCCC1)C(=O)N[C@@H](Cc1c[nH]c2ccccc12)C(N)=O [YA-174, Ac-(D-Tyr)-Hyp-Asn-Thr-A6c-azaGly-Leu-Arg(Me)-Trp-NH2] (Ac-[dY][Hyp]NT[Ac6c][azaGly]L[Arg(Me)]W-NH2)
0.007	CNC(=N)NCCC[C@H](NC(=O)[C@H](CC(C)C)NC(=O)NNC(=O)[C@H](Cc1ccccc1)NC(=O)[C@@H](NC(=O)[C@H](CC(N)=O)NC(=O)[C@@H]1C[C@@H](O)CN1C(=O)[C@@H](Cc1ccc(F)cc1)NC(C)=O)[C@@H](C)O)C(=O)N[C@@H](Cc1c[nH]c2ccccc12)C(N)=O [YA-170, Ac-[D-Phe(4-F)]-Hyp-Asn-Thr-Phe-azaGly-Leu-Arg(Me)-Trp-NH2] (Ac-[dPhe(4-F)][Hyp]NTF[azaGly]L[Arg(Me)]W-NH2)
0.3	CNC(=N)NCCC[C@H](NC(=O)[C@H](CC(C)C)NC(=O)NNC(=O)[C@H](Cc1ccccc1)NC(=O)[C@@H](NC(=O)[C@H](CC(N)=O)NC(=O)[C@@H]1C[C@@H](O)CN1C(=O)[C@H](Cc1cccnc1)NC(C)=O)[C@@H](C)O)C(=O)N[C@@H](Cc1c[nH]c2ccccc12)C(N)=O [YA-69, Ac-3Pal-Hyp-Asn-Thr-Phe-azaGly-Leu-Arg(Me)-Trp-NH2] (Ac-[3Pal][Hyp]NTF[azaGly]L[Arg(Me)]W-NH2)

Same assay, conditions: NFAT-bla CHO-K1 cells that express human kiss1 receptor (GPR54); FRET; cells cultured with compound for 4 hours; read-out: GPR54 EC50/nM

EC50 [nM]	Structure (SMILES)
2.11	CC(=O)N[C@@H](Cc1ccc(O)cc1)C(=O)N[C@@H](CC(N)=O)C(=O)N[C@@H](Cc1c[nH]c2ccccc12)C(=O)N[C@@H](CC(N)=O)C(=O)N[C@@H](CO)C(=O)N[C@@H](Cc1ccccc1)C(=O)NCC(=O)N[C@@H](CC(C)C)C(=O)N[C@@H](CCCNC(=N)N)C(=O)N[C@@H](Cc1ccccc1)C(N)=O [YA-2, Ac-Tyr-Asn-Trp-Asn-Ser-Phe-Gly-Leu-Arg-Phe-NH2]

Same assay, conditions: human kiss1 receptor (GPR54), NFAT-bla CHO-K1 cells, FRET; preliminary data; method of effect Embodiment 1; read-out: Preliminary measurement data (GPR54) EC50

EC50 [nM]	Structure (SMILES)
2.6	CNC(=N)NCCC[C@H](NC(=O)[C@H](CC(C)C)NC(=O)NCNC(=O)[C@H](Cc1ccccc1)NC(=O)[C@@H](NC(=O)[C@H](CC(N)=O)NC(=O)[C@@H]1C[C@@H](O)CN1C(=O)[C@@H](Cc1ccc(O)cc1)NC(C)=O)[C@@H](C)O)C(=O)N[C@@H](Cc1c[nH]c2ccccc12)C(N)=O [YA-256, Ac-(D-Tyr)-Hyp-Asn-Thr-Phe-ψ(NH—CO—NH)Gly-Leu-Arg(Me)-Trp-NH2] (Ac-[dY][Hyp]NTF-X10)
